Source: patent publication US20030148970A1, “Methods for specifically inhibiting histone deacetylase-4” (priority 2001, published 2003)

How the values were obtained:
HDAC 2 = HDAC 2 (Homo sapiens, UniProt Q92769); assay: histone deacetylase enzyme assay, HDAC 2; format: biochemical
Procedure: (§1) For the deacetylase assay, 20,000 cpm of an [^3H]-metabolically-labeled acetylated histone was used as a substrate. Histones were incubated with cloned recombinant human HDAC enzymes at 37° C. […] All assay conditions were pre-determined to be certain that each reaction was linear. Reactions were stopped by adding acetic acid (0.04 M final concentration) and HCl (250 mM, final concentration). The mixture was extracted with ethyl acetate, and the released [3H]-acetic acid was quantified by liquid scintillation counting. For the inhibition studies, HDAC enzyme was preincubated with test compounds for 30 minutes at 4° C. prior to the start of the enzymatic assay. IC50 values for HDAC enzyme inhibitors were identified with dose response curves for each individual compound and, thereby, obtaining a value for the concentration of inhibitor that produced fifty percent of the maximal inhibition.

[1] = tested on: human colon cancer HCT116 cells; assay: MTT assay of cell proliferation and cytotoxicity; format: cell-based; details: HCT-116, 48 hours
Procedure: Four thousand five hundred (4,500) human colon cancer HCT116 cells (ATCC, Manassas, Va. were used in an MTT (3-[4,5-dimethylthiazol-2-yl]-2,5 diphenyl tetrazolium bromide) assay to quantitatively determine cell proliferation and cytotoxicity. Typically, HCT116 cells were plated into each well of the 96-well tissue culture plate and left overnight to attach to the plate. Compounds at various concentrations (1 uM, 5 uM and 25 uM, in DMSO) were added in triplicate into the culture media (final DMSO concentration 1%) and incubated for 48 hours. MTT solution (obtained from Sigma as powder) was added and incubated with the cells for 4 hours at 37° C. in incubator with 5% CO2. During the incubation, viable cells convert MTT to a water-insoluble formazan dye. Solubilizing buffer (50% N,N-dimethylformamide, 20% SDS, pH 4.7) was added to cells and incubate for overnight at 37C in incubator with 5% CO2. Solubilized dye was quantitated by colorimetric reading at […] using a reference of […].

cell cycle arrest = format: cell-based
human HDAC-1 = biological target: T1, human HDAC-1 (Homo sapiens, UniProt Q13547); assay: histone deacetylase enzyme assay, HDAC-1; format: biochemical
T1 construct: made in house; host or cells: insect cells (baculovirus expression system)
Procedure: (§2) The other HDAC isotypes, HDAC-3 and HDAC-4, were purified directly on an anti-Flag affinity column.
as §1

p21 = p21 induction by small molecules; format: cell-based
human HDAC-3 = biological target: T2, human HDAC-3 (Homo sapiens, UniProt O15379); assay: histone deacetylase enzyme assay, HDAC-3; format: biochemical
T2 construct: made in house; host or cells: insect cells (baculovirus expression system)
Procedure: as §2, §1

human HDAC-6 = biological target: T3, human HDAC-6 (Homo sapiens, UniProt Q9UBN7); assay: histone deacetylase enzyme assay, HDAC-6; format: biochemical
T3 construct: made in house; host or cells: insect cells (baculovirus expression system)
T3 sequence (Q9UBN7 1-1215): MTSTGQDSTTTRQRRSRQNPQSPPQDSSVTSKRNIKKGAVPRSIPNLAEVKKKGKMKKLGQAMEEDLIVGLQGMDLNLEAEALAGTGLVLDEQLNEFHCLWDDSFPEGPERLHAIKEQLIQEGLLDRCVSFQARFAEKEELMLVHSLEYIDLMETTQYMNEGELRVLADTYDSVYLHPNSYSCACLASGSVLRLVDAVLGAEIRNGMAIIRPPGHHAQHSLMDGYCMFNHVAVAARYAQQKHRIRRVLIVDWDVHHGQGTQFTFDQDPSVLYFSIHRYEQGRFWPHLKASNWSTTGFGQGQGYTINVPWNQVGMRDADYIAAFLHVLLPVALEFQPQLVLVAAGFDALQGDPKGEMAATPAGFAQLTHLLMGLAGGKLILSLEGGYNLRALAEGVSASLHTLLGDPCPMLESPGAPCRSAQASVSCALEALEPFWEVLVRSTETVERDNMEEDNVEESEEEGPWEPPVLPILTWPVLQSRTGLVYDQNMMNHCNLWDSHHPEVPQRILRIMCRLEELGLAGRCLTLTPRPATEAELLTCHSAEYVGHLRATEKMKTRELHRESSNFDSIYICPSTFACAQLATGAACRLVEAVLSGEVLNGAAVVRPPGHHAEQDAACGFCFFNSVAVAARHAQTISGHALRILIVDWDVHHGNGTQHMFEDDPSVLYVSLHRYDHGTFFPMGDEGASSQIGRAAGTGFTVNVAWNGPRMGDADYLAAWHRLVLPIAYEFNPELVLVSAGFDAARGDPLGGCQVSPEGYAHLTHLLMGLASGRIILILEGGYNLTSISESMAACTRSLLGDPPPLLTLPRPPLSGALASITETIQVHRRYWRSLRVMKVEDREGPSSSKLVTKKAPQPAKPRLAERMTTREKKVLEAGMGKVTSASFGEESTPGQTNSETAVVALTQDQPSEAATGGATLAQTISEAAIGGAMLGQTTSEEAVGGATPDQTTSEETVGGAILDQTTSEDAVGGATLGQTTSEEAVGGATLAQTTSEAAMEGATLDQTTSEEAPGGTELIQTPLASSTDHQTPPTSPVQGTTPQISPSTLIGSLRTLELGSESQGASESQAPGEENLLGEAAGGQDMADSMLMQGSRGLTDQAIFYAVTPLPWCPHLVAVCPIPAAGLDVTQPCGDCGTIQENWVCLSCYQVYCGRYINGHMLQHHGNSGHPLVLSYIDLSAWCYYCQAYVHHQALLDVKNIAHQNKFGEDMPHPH
Procedure: as §2, §1

human HDAC-4 = biological target: T4, human HDAC-4 (Homo sapiens, UniProt P56524); assay: histone deacetylase enzyme assay, HDAC-4; format: biochemical
T4 construct: Flag; made in house; host or cells: human embryonic kidney 293 cells (calcium phosphate transfection)
Procedure: Flag-tagged human HDAC-4 enzyme was produced in human embronic kidney 293 cells after transformation by the calcium phosphate precipitation method. Briefly, 293 cells were cultured in Dulbecco's Modified Eagle Medium (DMEM) containing 10% fetal bovine serum and antibiotics. Plasmid DNA encoding Flag-tagged human HDAC-4 was precipitated by ethanol and resuspend in sterile water. DNA-calcium precipitates, formed by mixing DNA, calcium choloride and 2×HEPES-buffered saline solution, were left on 293 cells for 12-16 hours. Cells were return to serum-contained DMEM medium and harvested at 48 hour post transfection for purification of Flag-tagged HDAC-4 enzyme.
as §2, §1

[2] = tested on: acetylated histone H-4 in T24 human bladder cancer cells; assay: inhibition of HDAC activity in whole cells (acetylated histone H-4 Western); format: cell-based; details: 16 hours
Procedure: T24 human bladder cancer cells (ATCC, Manassas, Va.) growing in culture were incubated with test compounds for 16 hours. Histones were extracted from the cells by standard procedures (see e.g. Yoshida et al., supra) after the culture period. Twenty μg total core histone protein was loaded onto SDS/PAGE and transferred to nitrocellulose membranes, which were then reacted with polyclonal antibody specific for acetylated histone H-4 (Upstate Biotech Inc., Lake Placid, […].). Horse Radish Peroxidase conjugated secondary antibody was used at a dilution of 1:5000 to detect primary antibody binding. The secondary antibody binding was visualized by use of the Enhanced chemiluminescence (ECL) detection kit (Amersham-Pharmacia Biotech., Inc., Piscataway, N.J.). After exposure to film, acetylated H-4 signal was quantitated by densitometry.

[3] = tested on: human colon cancer cells (HCT116); assay: tumor growth in a mouse model, colon; format: in vivo, BALB/c nude mice; details: 40 mg/kg body weight/day, i p; vs vehicle-treated mice
Procedure: Female BALB/c nude mice were obtained from Charles River Laboratories (Charles River, NY) and used at age 8-10 weeks. Human prostate tumor cells (DU145, 2×10^6) or human colon cancer cells (HCT116; 2×10^6) or small lung core A549 2×10^6 were injected subcutaneously in the animal's flank and allowed to form solid tumors. Tumor fragments were serially passaged a minimum of three times, then approximately 30 mg tumor fragments were implanted subcutaneously through a small surgical incision under general anaesthesia. Small molecule inhibitor administration by intraperotineal or oral administration was initiated when the tumors reached a volume of 100 mm^3. For intraperotineal administration, small molecule inhibitors of HDAC (40-50 mg/kg body weight/day) were dissolved in 100% DMSO and administered daily intraperitoneally by injection. For oral administration, small molecule inhibitors of HDAC (40-50 mg/kg body weight/days) were dissolved in a solution containing 65% polyethylene glycol 400 (PEG 400 (Sigma-Aldridge, Mississauga, Ontario, Calif., Catalogue No. P-3265), 5% ethanol, and 30% water. Tumor volumes were monitored twice weekly up to 20 days. Each experimental group contained at least 6-8 animals. Percentage inhibition was calculated using volume of tumor from vehicle-treated mice as controls.

T2 sequence (O15379 whole entry): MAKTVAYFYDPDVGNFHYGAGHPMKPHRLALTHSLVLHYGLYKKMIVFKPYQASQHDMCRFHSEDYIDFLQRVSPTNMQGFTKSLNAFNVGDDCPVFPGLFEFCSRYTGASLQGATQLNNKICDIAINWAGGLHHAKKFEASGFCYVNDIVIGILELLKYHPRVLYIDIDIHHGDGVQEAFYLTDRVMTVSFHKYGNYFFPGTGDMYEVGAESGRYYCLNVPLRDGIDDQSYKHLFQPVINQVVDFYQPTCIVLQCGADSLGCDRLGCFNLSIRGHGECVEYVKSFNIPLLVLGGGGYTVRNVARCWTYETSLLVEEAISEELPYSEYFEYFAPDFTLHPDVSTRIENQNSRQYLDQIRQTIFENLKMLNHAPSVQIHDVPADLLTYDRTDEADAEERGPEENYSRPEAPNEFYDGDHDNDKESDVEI
T4 sequence (P56524 whole entry): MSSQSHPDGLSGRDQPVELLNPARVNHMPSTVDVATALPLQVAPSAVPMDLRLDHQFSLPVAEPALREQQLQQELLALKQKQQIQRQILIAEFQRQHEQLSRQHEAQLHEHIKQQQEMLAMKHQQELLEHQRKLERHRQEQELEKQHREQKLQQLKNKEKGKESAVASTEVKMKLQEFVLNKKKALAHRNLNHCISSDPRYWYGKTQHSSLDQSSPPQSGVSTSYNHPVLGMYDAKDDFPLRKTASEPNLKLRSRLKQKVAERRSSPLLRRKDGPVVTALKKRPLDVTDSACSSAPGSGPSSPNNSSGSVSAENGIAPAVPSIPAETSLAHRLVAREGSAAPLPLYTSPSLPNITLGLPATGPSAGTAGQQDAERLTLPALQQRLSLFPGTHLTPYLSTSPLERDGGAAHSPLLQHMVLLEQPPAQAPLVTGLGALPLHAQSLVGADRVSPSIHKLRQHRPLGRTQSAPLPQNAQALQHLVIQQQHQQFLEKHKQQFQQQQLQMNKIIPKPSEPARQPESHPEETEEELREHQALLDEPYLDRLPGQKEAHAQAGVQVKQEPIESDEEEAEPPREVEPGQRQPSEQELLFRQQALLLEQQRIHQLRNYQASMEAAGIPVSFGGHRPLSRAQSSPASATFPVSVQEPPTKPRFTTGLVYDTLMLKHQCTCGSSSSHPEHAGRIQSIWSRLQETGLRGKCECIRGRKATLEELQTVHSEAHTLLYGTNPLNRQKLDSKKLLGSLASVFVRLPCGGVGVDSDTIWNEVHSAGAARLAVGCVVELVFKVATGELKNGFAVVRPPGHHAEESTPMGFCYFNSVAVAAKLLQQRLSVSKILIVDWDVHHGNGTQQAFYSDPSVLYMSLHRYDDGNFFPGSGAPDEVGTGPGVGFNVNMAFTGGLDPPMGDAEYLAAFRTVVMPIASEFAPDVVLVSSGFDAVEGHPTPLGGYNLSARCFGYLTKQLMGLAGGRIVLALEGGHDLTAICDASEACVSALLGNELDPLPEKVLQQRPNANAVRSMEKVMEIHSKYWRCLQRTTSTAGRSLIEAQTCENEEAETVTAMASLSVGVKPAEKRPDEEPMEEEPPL
T1 sequence (Q13547 whole entry): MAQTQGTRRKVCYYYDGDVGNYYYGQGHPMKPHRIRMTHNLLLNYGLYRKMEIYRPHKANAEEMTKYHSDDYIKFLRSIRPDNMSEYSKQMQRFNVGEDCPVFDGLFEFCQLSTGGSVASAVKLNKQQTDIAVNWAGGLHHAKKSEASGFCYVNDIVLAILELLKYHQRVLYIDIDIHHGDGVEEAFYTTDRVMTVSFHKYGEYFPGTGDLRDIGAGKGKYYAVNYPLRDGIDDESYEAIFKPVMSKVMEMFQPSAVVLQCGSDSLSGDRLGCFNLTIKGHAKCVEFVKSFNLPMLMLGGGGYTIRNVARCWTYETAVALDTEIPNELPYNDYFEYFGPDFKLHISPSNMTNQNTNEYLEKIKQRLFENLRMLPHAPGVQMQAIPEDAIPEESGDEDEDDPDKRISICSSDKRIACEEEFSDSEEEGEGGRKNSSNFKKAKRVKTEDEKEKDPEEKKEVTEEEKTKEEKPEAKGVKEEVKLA
HDAC 2, sequence (Q92769 whole entry): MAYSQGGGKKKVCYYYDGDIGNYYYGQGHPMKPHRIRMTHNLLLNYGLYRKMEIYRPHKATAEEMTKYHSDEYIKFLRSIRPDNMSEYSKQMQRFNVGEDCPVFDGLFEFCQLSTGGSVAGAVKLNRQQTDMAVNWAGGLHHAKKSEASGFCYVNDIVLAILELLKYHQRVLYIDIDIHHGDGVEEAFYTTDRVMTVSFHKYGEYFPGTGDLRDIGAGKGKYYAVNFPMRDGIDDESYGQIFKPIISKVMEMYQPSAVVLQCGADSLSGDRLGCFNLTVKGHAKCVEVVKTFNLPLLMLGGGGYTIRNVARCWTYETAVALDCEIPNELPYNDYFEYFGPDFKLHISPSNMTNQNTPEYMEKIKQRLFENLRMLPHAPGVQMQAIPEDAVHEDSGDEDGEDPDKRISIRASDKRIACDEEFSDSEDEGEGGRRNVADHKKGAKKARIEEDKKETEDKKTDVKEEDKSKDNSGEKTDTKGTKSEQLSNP

Row | Compound | IC50 (HDAC 2) | IC50 [1] | cell cycle arrest EC (cell cycle arrest) | IC50 (human HDAC-1) | p21 induction (p21) | IC50 (human HDAC-3) | IC50 (human HDAC-6) | IC50 (human HDAC-4) | effective concentration for histone H4 acetylation [2] | % inh. of tumor formation in vivo, colon [3]
1 | CC(/C=C/C(=O)Nc1ccccc1N)=C\C(C)C(=O)c1ccc(N(C)C)cc1 (stereo not drawn) [MG 242 9] | 25 µM | 1 µM | 2 µM | 3 µM | 3 µM | 21 µM | > 50 µM | 23 µM | 1 µM | –
2 | Cc1ccc(S(=O)(=O)Nc2ccc(/C=C/C(=O)Nc3ccccc3N)cc2)cc1 [MG 376 3] | – | 4 µM | 2 µM | 3 µM | 2 µM | 45 µM | > 50 µM | 28 µM | 5 µM | 55 (40, i p) %
